# According to patent publication US20080299086A1, “Cultured muscle cells with high metabolic activity and method for production of the cultured muscle cells” (TOHOKU UNIVERSITY, priority 2006, published 2008):
# Key:
# [1] = system: recombinant GLUT4 (myc-GLUT4-ECFP) in C2C12 myotube cells; experiment: Measurement of GLUT4 membrane-translocation activity by anti-myc antibody uptake, western blot analysis; format: cell-based, mouse; settings: insulin 100 nM, 60 minutes
# Protocol: The C2C12 myotube cells expressing a recombinant GLUT4, prepared according to Preparation Example 3, were stimulated by insulin with a final concentration of 100 nM for 60 minutes. After 30 minutes from the start of insulin stimulation, an anti-myc-monoclonal antibody with a final concentration of 4 μg/ml was supplemented in a culture medium. After insulin stimulation, the cells were washed 5 times with PBS (−) to remove anti-myc antibodies that were present on the cell membrane, and subsequently, a cell extract was prepared using Laemmli's buffer. The cell extract was used for 12.5% SDS-PAGE, and western blot analysis using an anti-mice-IgG antibody bound to horseradish peroxidase was carried out. Moreover, detection was carried out using a west super femto detection kit (Pierce Biotechnology Inc.).
# [2] = system: myc-GLUT4-ECFP in C2C12 myotube cells; experiment: Immunostaining of myc on the membrane, confocal microscope (membrane translocation of GLUT4); format: cell-based, mouse; settings: insulin 100 nM, 60 minutes; FIG. 13
# Protocol: The C2C12 myotube cells (differentiation-type culture myotube cell) expressing a myc-GLUT4-ECFP, prepared according to Preparation Example 3, were stimulated by insulin with a final concentration of 100 nM for 60 minutes. After being washed 3 times with PBS (−), they were fixed by being shaken in PBS (−) supplemented with 2% paraformaldehyde for 15 minutes. After being washed 3 times×10 minutes with PBS (−), they were blocked by being shaken in PBS (−) supplemented with 5% bovine serum for 1 hour. Next, they were shaken for 1 hour using an anti-myc-monoclonal antibody diluted 200-fold with PBS (−) supplemented with 1% bovine serum albumin as a primary antibody. After being washed 5 times×10 minutes with PBS (−), they were shaken for 1 hour using an anti-mice-IgG antibody (The Jackson Laboratory) bound to rhodamine that was diluted 2000-fold with PBS (−) supplemented with 1% bovine serum albumin as a secondary antibody. Subsequently, the glass cover was removed, and they were placed on a glass slide on which Vecta Shield was dropped, and rhodamine and expression of ECFP were observed under a confocal microscope.
substance,measurement,setting,value
insulin,amount of the anti-myc antibody incorporated into the cells,[1]; FIG. 14A,significantly increased
same,GLUT4 activity increase by insulin (quantified western blot),"[1]; anti-myc antibody 4 μg/ml, FIG. 14C",approximately 3 fold
same,membrane translocation of GLUT4 (myc on the membrane),[2],GLUT4 was translocated on the membrane
